# In patent US20190388377A1, “COMPOSITIONS AND METHODS FOR THE TREATMENT OF LIVER DISEASES AND DISORDERS” (AXCELLA HEALTH INC., priority 2018, published 2019):
# System: Procollagen III
# Experiment: Procollagen III secretion by ELISA, TGFβ1-stimulated hepatic stellate cells, Example 4
# Type: cell-based, human
# Details: HSC, three donors
# Experimental: Primary human hepatic stellate cells were obtained from Samsara Sciences. Cells from three different donors were grown in Complete HSC Medium to ˜80% confluence in T75 or T150 flasks below passage 10 were seeded into sterile, collagen I coated, 96-well optical plastic microplates (ThermoScientific) and incubated overnight at 37° C., 5% CO2 in a humidified incubator in DMEM with 2% Fetal Bovine Serum and 1% Antimycotic. […] After 24 hours of stimulus, supernatant was removed and used to measure Procollagen III and cells were then washed and fixed with 4% paraformaldehyde for further staining. Procollagen III, an important biomarker of fibrosis was measured by ELISA (Human PCIII Elisa Kit, G-Biosciences) following the manufacturer's recommendations. Fixed cells with 4% paraformaldehyde were permeabilized with 0.1% Triton X-100 then immunostained for alpha SMA and labeled for EdU incorporation.
smiles,measurement,value
"CC(=O)N[C@@H](CS)C(=O)O [Nac, N-acetylcysteine]",procollagen III secretion (in words),decreased procollagen III secretion but at a lower extent than LIRNacCar and LIRQNacSCar
